{
  "source": "the Kinase Knowledgebase extract (Sharma et al. 2016)",
  "data": [
    {"target": "PIK3CA (human) (UniProt P42336)", "sequence (P42336 whole entry, looked up)": "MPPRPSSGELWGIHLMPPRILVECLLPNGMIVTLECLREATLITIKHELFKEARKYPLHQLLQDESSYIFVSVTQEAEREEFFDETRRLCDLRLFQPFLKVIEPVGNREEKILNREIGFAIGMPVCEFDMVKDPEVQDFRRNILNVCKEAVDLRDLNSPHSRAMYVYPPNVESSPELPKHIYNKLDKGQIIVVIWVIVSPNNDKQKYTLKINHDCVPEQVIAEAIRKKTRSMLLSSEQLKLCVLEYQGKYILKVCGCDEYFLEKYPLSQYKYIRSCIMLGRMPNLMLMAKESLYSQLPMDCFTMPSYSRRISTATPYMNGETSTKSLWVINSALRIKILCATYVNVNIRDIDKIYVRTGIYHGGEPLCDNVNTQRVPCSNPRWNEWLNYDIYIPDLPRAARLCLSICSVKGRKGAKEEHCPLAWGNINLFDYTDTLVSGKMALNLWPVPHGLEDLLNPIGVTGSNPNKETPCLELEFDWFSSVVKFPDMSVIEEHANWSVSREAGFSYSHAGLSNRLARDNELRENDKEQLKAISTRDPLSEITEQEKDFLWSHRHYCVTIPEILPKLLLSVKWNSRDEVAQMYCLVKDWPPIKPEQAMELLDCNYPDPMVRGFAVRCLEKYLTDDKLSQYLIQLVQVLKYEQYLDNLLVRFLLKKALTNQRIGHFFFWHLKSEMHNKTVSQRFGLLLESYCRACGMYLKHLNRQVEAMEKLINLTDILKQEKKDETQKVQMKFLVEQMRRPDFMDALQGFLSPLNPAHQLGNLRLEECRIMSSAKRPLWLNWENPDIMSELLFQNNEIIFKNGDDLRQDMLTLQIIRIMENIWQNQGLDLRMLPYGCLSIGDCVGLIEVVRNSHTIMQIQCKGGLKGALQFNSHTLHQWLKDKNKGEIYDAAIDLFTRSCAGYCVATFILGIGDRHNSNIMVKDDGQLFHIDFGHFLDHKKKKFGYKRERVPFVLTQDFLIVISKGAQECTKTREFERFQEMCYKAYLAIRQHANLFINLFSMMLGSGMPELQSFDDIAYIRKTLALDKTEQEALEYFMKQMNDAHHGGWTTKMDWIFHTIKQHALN", "assay": "Inhibition of PIK3CA Kinase Activity", "units": {"IC50": "nM"}, "values": [
      {"compound": "CNC(=O)c1ccc(-c2ccc3c(c2)CN(c2ccnc4ccccc24)CCO3)cc1", "IC50": "50 to 250"},
      {"compound": "CC1(C)CCc2ncnc(N3CCOc4ccc(-c5cnc(N)c(S(=O)(=O)N6CC7CNCC7C6)c5)cc4C3)c2C1", "note": "(stereo not drawn)", "IC50": "50 to 250"},
      {"compound": "COCCNCc1nc2c(c(N3CCOc4ccc(-c5ccc6nc(C)[nH]c6c5)cc4C3)n1)CC(C)(C)CC2", "IC50": "10 to 50"},
      {"compound": "CNC1CN(S(=O)(=O)c2cc(-c3ccc4c(c3)CN(c3ncnc5c3CC(C)(C)CC5)CCO4)cnc2N)C1", "IC50": "10 to 50"},
      {"compound": "Cc1nc2cc(-c3ccc4c(c3)CN(c3nc(C(C)N)nc5c3CC(C)(C)CC5)CCO4)ccc2[nH]1", "note": "(stereo not drawn)", "IC50": "10 to 50"},
      {"compound": "Cc1nc2ccc(-c3ccc4c(c3)CN(c3ncnc5cc(S(C)(=O)=O)ccc35)CCO4)cc2[nH]1", "IC50": "50 to 250"},
      {"compound": "CC(C)(O)CCS(=O)(=O)c1cc(-c2ccc3c(c2)CN(c2ncnc4c2CC(C)(C)CC4)CCO3)cnc1N", "IC50": "10 to 50"},
      {"compound": "CN(C)Cc1nc2ncc(-c3ccc4c(c3)CN(c3ncnc5c3CC(C)(C)CC5)CCO4)cc2[nH]1", "IC50": "250 to 1000"},
      {"compound": "COCCNCc1nc2c(c(N3CCOc4ccc(-c5cnc6nc(C)[nH]c6c5)cc4C3)n1)CC(C)(C)CC2", "IC50": "10 to 50"},
      {"compound": "CC1(C)CCc2ncnc(N3CCOc4ccc(-c5cnc(N)c(S(=O)(=O)NCC6CCCCN6)c5)cc4C3)c2C1", "note": "(stereo not drawn)", "IC50": "50 to 250"},
      {"compound": "COc1ccc(-c2ccc3c(c2)CN(c2nc(CN(C)C)nc4c2CC(C)(C)CC4)CCO3)cc1OC", "IC50": "10 to 50"},
      {"compound": "CC1(C)C=Cc2ncnc(N3CCOc4ccc(-c5cnc(N)c(S(=O)(=O)N6CC[C@@H](N)C6)c5)cc4C3)c2C1", "IC50": "10 to 50"},
      {"compound": "CC1(C)CCc2ncnc(N3CCOc4ccc(-c5cnc(N)c(S(=O)(=O)NC6CCNCC6)c5)cc4C3)c2C1", "IC50": "50 to 250"},
      {"compound": "Cc1nc2ncc(-c3ccc4c(c3)CN(c3nc(CN5CC[C@H](F)C5)nc5c3CC(C)(C)CC5)CCO4)cc2[nH]1", "IC50": "10 to 50"},
      {"compound": "Cc1nc(CN(C)C)nc(N2CCOc3ccc(-c4cnc5sc(N)nc5c4)cc3C2)c1-c1ccccc1", "IC50": "10 to 50"},
      {"compound": "COC(=O)Nc1nc2ccc(-c3ccc4c(c3)CN(c3nc(CN(C)C)nc5c3CC(C)(C)CC5)CCO4)cc2[nH]1", "IC50": "≤ 10"},
      {"compound": "COc1ccc2c(N3CCOc4ccc(-c5ccc(N)cc5)cc4C3)nc(C)nc2c1", "IC50": "250 to 1000"},
      {"compound": "COC(=O)Nc1nc2ccc(-c3ccc4c(c3)CN(c3ncnc5ccccc35)CCO4)cc2[nH]1", "IC50": "10 to 50"},
      {"compound": "Cc1nc2ccc(-c3ccc4c(c3)CN(c3ccncn3)CCO4)cc2[nH]1", "IC50": "250 to 1000"},
      {"compound": "CC[C@H]1CCc2c(ncnc2N2CCOc3ccc(-c4cnc5nc(C)[nH]c5c4)cc3C2)C1", "IC50": "≤ 10"},
      {"compound": "CN1CCC[C@H](CNS(=O)(=O)c2cc(-c3ccc4c(c3)CN(c3ncnc5c3CC(C)(C)CC5)CCO4)cnc2N)C1", "IC50": "50 to 250"},
      {"compound": "CCc1c(C)ncnc1N1CCOc2ccc(-c3cnc4nc(C)[nH]c4c3)cc2C1", "IC50": "50 to 250"},
      {"compound": "Cc1nc2ccc(-c3ccc4c(c3)CN(c3ncnc5c3CCCC5)CCO4)cc2[nH]1", "IC50": "50 to 250"},
      {"compound": "CC1(C)C=Cc2ncnc(N3CCOc4ccc(-c5ccc(-c6ncc[nH]6)cc5)cc4C3)c2C1", "IC50": "10 to 50"},
      {"compound": "CC(C)(N)CCNS(=O)(=O)c1cc(-c2ccc3c(c2)CN(c2ncnc4c2CC(C)(C)CC4)CCO3)cnc1N", "IC50": "10 to 50"},
      {"compound": "COc1ccc(-c2ccc3c(c2)CN(c2nc(CN(C)C)nc4c2CC(C)(C)CC4)CCO3)cn1", "IC50": "50 to 250"},
      {"compound": "COc1cc2ncnc(N3CCOc4ccc(-c5ccc6nc(C)[nH]c6c5)cc4C3)c2cc1OC", "IC50": "50 to 250"},
      {"compound": "CC[C@H]1CCc2c(ncnc2N2CCOc3ccc(-c4cnc(N)c(S(=O)(=O)N5CC[C@@H](N)C5)c4)cc3C2)C1", "IC50": "10 to 50"},
      {"compound": "c1ccc2c(N3CCOc4ccc(-c5ccc6nccnc6c5)cc4C3)ccnc2c1", "IC50": "50 to 250"},
      {"compound": "CC1(C)CCc2ncnc(N3CCOc4ccc(-c5cnc(C(N)=O)c(N)c5)cc4C3)c2C1", "IC50": "250 to 1000"},
      {"compound": "COc1ccc2c(N3CCOc4ccc(-c5cnc(N)c(S(=O)(=O)N6CC[C@H](N)C6)c5)cc4C3)ncnc2c1", "IC50": "≤ 10"},
      {"compound": "Cc1nc2ccc(-c3ccc4c(c3)CN(c3nc(CNC5CC5)nc5c3CC(C)(C)CC5)CCO4)cc2[nH]1", "IC50": "10 to 50"},
      {"compound": "CCNc1nc2ccc(-c3ccc4c(c3)CN(c3ccnc5cc(OC)ccc35)CCO4)cc2[nH]1", "IC50": "≤ 10"},
      {"compound": "Cc1nc2ncc(-c3ccc4c(c3)CN(c3ncnc(C)c3C(C)C)CCO4)cc2[nH]1", "IC50": "10 to 50"},
      {"compound": "CC1(C)CCc2ncnc(N3CCOc4ccc(-c5ccc(-c6ncc[nH]6)cc5)cc4C3)c2C1", "IC50": "10 to 50"},
      {"compound": "COC(=O)Nc1nc2ccc(-c3ccc4c(c3)CN(c3ncnc5ccc(OC)cc35)CCO4)cc2[nH]1", "IC50": "10 to 50"},
      {"compound": "Cc1cc(Br)c2ncnc(N3CCOc4ccc(-c5ccc6nc(C)[nH]c6c5)cc4C3)c2c1", "IC50": "50 to 250"},
      {"compound": "CC1(C)CCc2ncnc(N3CCOc4ccc(-c5cnc(N)c(S(=O)(=O)N6CCC(N)C6)c5)cc4C3)c2C1", "note": "(stereo not drawn)", "IC50": "10 to 50"},
      {"compound": "Cc1c(N2CCOc3ccc(-c4cnc5nc(C6CC6)[nH]c5c4)cc3C2)ncnc1N(C)[C@@H](C)c1ccccc1", "IC50": "250 to 1000"},
      {"compound": "Cc1nc2c(c(N3CCOc4ccc(-c5cnc(N)c(S(=O)(=O)N(C)C)c5)cc4C3)n1)CC(C)(C)CC2", "IC50": "50 to 250"},
      {"compound": "C[C@H]1CCc2c(ncnc2N2CCOc3ccc(-c4cnc5nc(C6CC6)[nH]c5c4)cc3C2)C1", "IC50": "10 to 50"},
      {"compound": "CC1(C)CCc2ncnc(N3CCOc4ccc(-c5cnc6[nH]c(C(F)F)nc6c5)cc4C3)c2C1", "IC50": "50 to 250"},
      {"compound": "COc1ccc2c(N3CCOc4ccc(-c5cnc6[nH]ccc6c5)cc4C3)nc(C)nc2c1", "IC50": "50 to 250"}
    ]}
  ]
}
